{
  "source": "PubChem BioAssay AID330",
  "about": "(DTP/NCI, 2004)",
  "test_system": "P388 leukemia ip, CD2F1 mice, survival T/C",
  "assay": "NCI In Vivo Anticancer Drug Screen. Data for tumor model P388 Leukemia (intraperitoneal) in CD2F1 (CDF1) mice",
  "conditions": "endpoint: median survival time, higher = longer survival",
  "how_it_was_run": "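Mice carrying the transplanted tumor received test compound or vehicle. Survival was recorded in each group, and the value is the treated-group measurement divided by that of the vehicle-treated control group.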",
  "key": {"[1]": {"conditions": "dose: 50.0 mg/kg/injection, schedule: Q01DX005 (ip), vehicle: Klucel (hydroxypropylcellulose) (HPC)"}, "[2]": {"conditions": "dose: 100.0 mg/kg/injection, schedule: Q01DX005 (ip), vehicle: Klucel (hydroxypropylcellulose) (HPC)"}, "[3]": {"conditions": "dose: 200.0 mg/kg/injection, schedule: Q01DX005 (ip), vehicle: Klucel (hydroxypropylcellulose) (HPC)"}, "[4]": {"conditions": "dose: 50.0 mg/kg/injection, schedule: Q01DX005 (ip), vehicle: saline"}, "[5]": {"conditions": "dose: 100.0 mg/kg/injection, schedule: Q01DX005 (ip), vehicle: saline"}, "[6]": {"conditions": "dose: 50.0 mg/kg/injection, schedule: Q01DX009 (ip), vehicle: Klucel (hydroxypropylcellulose) (HPC)"}, "[7]": {"conditions": "dose: 100.0 mg/kg/injection, schedule: Q01DX009 (ip), vehicle: Klucel (hydroxypropylcellulose) (HPC)"}, "[8]": {"conditions": "dose: 200.0 mg/kg/injection, schedule: Q01DX009 (ip), vehicle: Klucel (hydroxypropylcellulose) (HPC)"}, "[9]": {"conditions": "dose: 60.0 mg/kg/injection, schedule: Q01DX005 (ip), vehicle: saline with Tween-80"}, "[10]": {"conditions": "dose: 120.0 mg/kg/injection, schedule: Q01DX005 (ip), vehicle: saline with Tween-80"}, "[11]": {"conditions": "dose: 50.0 mg/kg/injection, schedule: Q01DX009 (ip), vehicle: saline with Tween-80"}, "[12]": {"conditions": "dose: 100.0 mg/kg/injection, schedule: Q01DX009 (ip), vehicle: saline with Tween-80"}, "[13]": {"conditions": "dose: 200.0 mg/kg/injection, schedule: Q01DX009 (ip), vehicle: saline with Tween-80"}, "[14]": {"conditions": "dose: 25.0 mg/kg/injection, schedule: Q01DX009 (ip), vehicle: saline"}, "[15]": {"conditions": "dose: 50.0 mg/kg/injection, schedule: Q01DX009 (ip), vehicle: saline"}},
  "note": "Values joined by “and” are separate entries in the source; they are usually repeats but may differ in a detail not shown here. Identical values can stand only once. Toxic doses and inconclusive results are not listed.",
  "data": [
    {"smiles": "CCC(c1ccc(OC)cc1)C(NC(=S)NCc1ccccc1)c1ccc(OC)cc1", "note": "(configuration not stated)", "values": [
      {"measurement": "T/C", "setting": "dose: 100.0 mg/kg/injection, schedule: Q04DX002 (ip), vehicle: saline with Tween-80", "result": "94 % of control"},
      {"measurement": "T/C", "setting": "dose: 200.0 mg/kg/injection, schedule: Q04DX002 (ip), vehicle: saline with Tween-80", "result": "91 % of control"}
    ]},
    {"smiles": "COC(=O)N(C)C1=CCC(C(C)(C)C)CC1", "note": "(configuration not stated)", "values": [
      {"measurement": "T/C", "setting": "dose: 25.0 mg/kg/injection, schedule: Q01DX005 (ip), vehicle: Klucel (hydroxypropylcellulose) (HPC)", "result": "103 % of control"},
      {"measurement": "T/C", "setting": "[1]", "result": "106 % of control"},
      {"measurement": "T/C", "setting": "[2]", "result": "107 % of control"},
      {"measurement": "T/C", "setting": "[3]", "result": "105 % of control"}
    ]},
    {"smiles": "NNC(=O)C(N)Cc1ccc(O)cc1", "note": "(configuration not stated)", "values": [
      {"measurement": "T/C", "setting": "[4]", "result": "100 % of control"},
      {"measurement": "T/C", "setting": "[5]", "result": "103 % of control"},
      {"measurement": "T/C", "setting": "dose: 200.0 mg/kg/injection, schedule: Q01DX005 (ip), vehicle: saline", "result": "115 % of control"}
    ]},
    {"smiles": "CC1=NN(c2ccc(S(=O)(=O)O)cc2)C(=O)C1N=Nc1ccc(C)c(S(=O)(=O)Nc2ccccc2)c1", "note": "(configuration not stated)", "values": [
      {"measurement": "T/C", "setting": "[6]", "result": "101 % of control"},
      {"measurement": "T/C", "setting": "[7]", "result": "99 % of control"},
      {"measurement": "T/C", "setting": "[8]", "result": "101 % of control"}
    ]},
    {"smiles": "CN(C)CCCN1c2ccccc2Oc2ccc(Cl)cc21", "values": [
      {"measurement": "T/C", "setting": "[4]", "result": "105 % of control"},
      {"measurement": "T/C", "setting": "[5]", "result": "106 % of control"}
    ]},
    {"smiles": "c1ccc2c(c1)ccc1cccnc12", "values": [
      {"measurement": "T/C", "setting": "dose: 50.0 mg/kg/injection, schedule: Q01DX005 (ip), vehicle: saline with Tween-80", "result": "93 % of control"},
      {"measurement": "T/C", "setting": "dose: 100.0 mg/kg/injection, schedule: Q01DX005 (ip), vehicle: saline with Tween-80", "result": "93 % of control"},
      {"measurement": "T/C", "setting": "dose: 200.0 mg/kg/injection, schedule: Q01DX005 (ip), vehicle: saline with Tween-80", "result": "102 % of control"}
    ]},
    {"smiles": "Cc1ccc(C(=O)CC(O)(C(F)(F)F)C(F)(F)F)cc1", "values": [
      {"measurement": "T/C", "setting": "dose: 100.0 mg/kg/injection, schedule: Q04DX003 (ip), vehicle: other", "result": "100 % of control"},
      {"measurement": "T/C", "setting": "dose: 200.0 mg/kg/injection, schedule: Q04DX003 (ip), vehicle: other", "result": "118 % of control"},
      {"measurement": "T/C", "setting": "dose: 400.0 mg/kg/injection, schedule: Q04DX003 (ip), vehicle: other", "result": "122 % of control"}
    ]},
    {"smiles": "CC1=CC2C3C(=O)NC(=O)C3C1(C)C1C3C(=O)NC(=O)C3C21", "note": "(configuration not stated)", "values": [
      {"measurement": "T/C", "setting": "[9]", "result": "100 % of control"},
      {"measurement": "T/C", "setting": "[10]", "result": "100 % of control"},
      {"measurement": "T/C", "setting": "dose: 240.0 mg/kg/injection, schedule: Q01DX005 (ip), vehicle: saline with Tween-80", "result": "101 % of control"}
    ]},
    {"smiles": "CN(C)Cc1nc2sc3c(c2c(=O)[nH]1)CCCC3", "values": [
      {"measurement": "T/C", "setting": "[11]", "result": "106 % of control"},
      {"measurement": "T/C", "setting": "[12]", "result": "108 % of control"},
      {"measurement": "T/C", "setting": "[13]", "result": "103 % of control"}
    ]},
    {"smiles": "O=c1[nH]cnc2[nH]cc([N+](=O)[O-])c12", "values": [
      {"measurement": "T/C", "setting": "dose: 6.25 mg/kg/injection, schedule: Q01DX009 (ip), vehicle: saline", "result": "102 % of control"},
      {"measurement": "T/C", "setting": "dose: 12.5 mg/kg/injection, schedule: Q01DX009 (ip), vehicle: saline", "result": "107 % of control"},
      {"measurement": "T/C", "setting": "[14]", "result": "102 % of control"},
      {"measurement": "T/C", "setting": "[15]", "result": "103 % of control"}
    ]},
    {"smiles": "CCCN(CCC)CC(=O)Nc1c(Cl)cccc1Cl", "values": [
      {"measurement": "T/C", "setting": "[14]", "result": "100 % of control"},
      {"measurement": "T/C", "setting": "[15]", "result": "110 % of control"},
      {"measurement": "T/C", "setting": "dose: 100.0 mg/kg/injection, schedule: Q01DX009 (ip), vehicle: saline", "result": "105 % of control"}
    ]},
    {"smiles": "O=C(N1CCN(C(=O)S(=O)(=O)c2ccccc2)CC1)S(=O)(=O)c1ccccc1", "values": [
      {"measurement": "T/C", "setting": "[6]", "result": "92 % of control"},
      {"measurement": "T/C", "setting": "[7]", "result": "100 % of control"},
      {"measurement": "T/C", "setting": "[8]", "result": "100 % of control"}
    ]},
    {"smiles": "CC(C)(C)c1cc(I)c(O)c(CN)c1", "values": [
      {"measurement": "T/C", "setting": "[14]", "result": "123 % of control"}
    ]},
    {"smiles": "COc1c2ccccc2c(C)c2ccc3ccccc3c12", "values": [
      {"measurement": "T/C", "setting": "dose: 100.0 mg/kg/injection, schedule: Q01DX001 (ip), vehicle: Klucel (hydroxypropylcellulose) (HPC)", "result": "107 % of control"},
      {"measurement": "T/C", "setting": "dose: 200.0 mg/kg/injection, schedule: Q01DX001 (ip), vehicle: Klucel (hydroxypropylcellulose) (HPC)", "result": "111 % of control"}
    ]},
    {"smiles": "O=C(NC(Cc1c[nH]c2ccccc12)C(=O)NC(Cc1ccccc1)C(=O)O)OCc1ccccc1", "note": "(configuration not stated)", "values": [
      {"measurement": "T/C", "setting": "[1]", "result": "103 % of control and 93 % of control"},
      {"measurement": "T/C", "setting": "[2]", "result": "106 % of control"},
      {"measurement": "T/C", "setting": "[3]", "result": "89 % of control"}
    ]},
    {"smiles": "C=CCSc1nc(N)nc2nc[nH]c12", "values": [
      {"measurement": "T/C", "setting": "[11]", "result": "100 % of control"},
      {"measurement": "T/C", "setting": "[12]", "result": "100 % of control"},
      {"measurement": "T/C", "setting": "[13]", "result": "90 % of control"}
    ]},
    {"smiles": "CCn1cnc2sc3c(c2c1=O)CCCC3", "values": [
      {"measurement": "T/C", "setting": "[9]", "result": "97 % of control"},
      {"measurement": "T/C", "setting": "[10]", "result": "98 % of control"}
    ]}
  ]
}
